The results in this text go back to PMC10096453, “One-Pot Synthesis and Evaluation of Antioxidative Stress and Anticancer Properties of an Active Chromone Derivative” (Molecules, 2023).

Series [1] in a line: DPPH radical scavenging assay. It counts as biochemical. Details: DPPH517nm % SA ± SD: dose or concentration left out as unconfirmed. Particulars: for DPPH517nm % SA ± SD: mean of three measurements. The source says:
(§1) Three in vitro antioxidant assays (DPPH, FRAP, and ABTS) were utilized to evaluate the antioxidant property of the synthesized compounds. The DPPH (α, α-diphenyl-β-picrylhydrazyl) assay is the well-known approach to determine antioxidant activity using a stable free radical DPPH, measure the absorbance change, and calculate the absorbance change in the percentage of scavenging activity. […] For example, the ferric-tripyridyltriazine (Fe^3+-TPTZ, colorless) complex is reduced to ferrous tripyridyltriazine (Fe^2+-TPTZ) at low pH and introduces a blue color with maximum absorption at 593 nm. The change in absorbance is related to antioxidant activity. However, a significant limitation of these in vitro tests is the non-physiological measurement conditions (no enzymatic condition and no transition metal ion chelating activity); therefore, the results obtained may not reflect the antioxidant activity of the source material under the biological conditions that exist in humans and animals. The ABTS assay involves a more drastic radical that is chemically produced. The use of ABTS for antioxidant activity determination of hydrophilic and lipophilic pure compounds has attracted interest due to its solubility in organic and aqueous media and stability in a wide pH range [31].
The DPPH method was followed and modified from a previous study. Trolox was used as a reference. The DPPH stock solution at a concentration of 0.625 mM was prepared in 50% ethanol and kept at 4 °C in the dark. On the day of the experiment, 0.208 mM fresh DPPH working solution was freshly prepared by further diluting with 50% ethanol. […] Each reaction was carried out in a 96-well plate, and 100 μL of test preparation and DPPH solution were added. The 96-well plate was then shaken well for 10 min and kept in the dark at room temperature for 20 min, and the absorbance was recorded at 515–517 nm. According to the method described, delocalization also results in a deep violet color and is quantified as a percentage of scavenging activity. % scavenging activity (SA) = 100 × (Asample − Ablank)/(Acontrol − Ablank)(1) where Acontrol and Asample are the absorbances of the test DPPH without and with a sample, respectively. Ablank is the absorbance of the solvent used. The EC50 values were calculated from the relationship curve of %SA versus sample concentration. The experiment was carried out at least in triplicate.
A general note: Loss of DPPH colour is used to gauge radical scavenging.

The nature of series [2]: FRAP (ferric reducing antioxidant power) assay. Format: biochemical. The settings on record: Trolox equivalent.
Description: as §1
The FRAP assay is a method for assessing antioxidant power. Briefly, the FRAP reagent was prepared from acetate buffer pH 3.6, 10 mM TPTZ solution in 40 mM HCl and 20 mM FeCl3.6 H2O in relative proportions of 10:1:1, v/v, respectively. The FRAP reagent was freshly prepared daily. A solution of 5 μL of the sample (3–300 μM, approx.) was mixed with 180 μL of the FRAP reagent in a 96-well plate. The mixture was shaken in the dark for 10 min and incubated at 37 °C for 20 min, and the absorbance was determined at 593 nm. The solution without the sample was used as a blank. All determinations were made in triplicate. Trolox was used as a standard antioxidant and plot the calibration curve between absorbance and concentration. Quercetin was applied as the reference compound. The FRAP values were calculated by comparing the absorbance change in the test sample and represented in μM of Trolox equivalent per μM of sample.

A short description of series [3]: ABTS radical cation scavenging assay. It counts as biochemical.
Description: as §1
The ABTS assay was prepared by reaction of 5 mL of a 7 mM aqueous ABTS (2,2′-azino-bis (3-ethylbenzthiazoline-6-sulphonic acid) solution and 2.45 mM potassium persulfate solution (K2S2O8). After preparation and storage in the dark for 16 h, the radical cation solution was further diluted in ethanol to absorb about 0.7 at 734 nm. Trolox and test sample solutions were prepared in stock solution with DMSO and diluted with ethanol. A solution of 100 μL of the sample was mixed with 100 μL of the ABTS reagent in a 96-well plate. The mixture was shaken in a dark place for 10 min and incubated at 37 °C for 20 min, and the absorbance was determined at 734 nm. Absorbance determinations were recorded immediately and not more than 1 h after adding the reagent. The solution without the sample was used as a blank. All the determinations were made in triplicate. The sample’s scavenging percentage was calculated from this equation: scavenging percentage = (Absorbance control − Absorbance sample) × 100/Absorbance control. EC50 values were calculated from the relationship curve of %scavenging versus sample concentration.

The nature of series [4]: MTT cytotoxicity assay, HEK293 cells. Format: cell-based. Particulars: human, HEK293 cells, 100 μM; for viability at 24 h, 100 µM: read-out: % Viability ± SD (at 100 μM) HEK293 24 h; for viability at 48 h, 100 µM: read-out: % Viability ± SD (at 100 μM) HEK293 48 h. As for the experimental part: (§2) HEK293, HACAT, and HeLa cells were grown in modified Eagles’ minimum essential medium (EMEM, Gibco) with 10% fetal bovine serum (FBS, Gibco), 1% of 100 U/mL streptomycin and 100 U/mL penicillin (Gibco). Cells were seeded in culture flasks and maintained in an incubator at 37 °C in a humidified atmosphere with 5% CO2. After reaching 80–90% of confluence, cells were detached by incubation with 0.25% trypsin-0.2% EDTA (Gibco) for 5 min and plated for experiments.
(§3) This study examined cell cultures of HEK293, HACAT, and HeLa cells. The cytotoxicity of the test samples was carried out by the MTT (3-(4,5-dimethylthiazol-2-yl)-2,5-diphenyltetrazolium bromide) assay. The cells were seeded in 96-well microliter plates (2.0 × 10^4 cells/well). Stock solutions of the test compounds were prepared in DMSO. After 24 h, cells were treated with different concentrations of samples and diluted with media to obtain the final desired concentration. The treated cells were then incubated at 37 °C and 5% CO2 for 24 and 48 h. After incubation, the medium was replaced with 0.05% w/v of MTT solution in PBS and further incubated for 3 h. The solution was then discarded and DMSO was added to dissolve the formed formazan crystals. Each well’s absorbance (A) was measured at 570 nm using a microplate reader (FLUOstar Omega^TM, BMG Labtech, Ortenberg, Germany). All experiments were carried out in triplicate and repeated for at least three experiments.
A general note: Tetrazolium dyes change colour on reduction, which living cells bring about.

Another series deals with HEK293 cells. The series can be described thus: MTT cytotoxicity assay, HEK293 cells. Format: cell-based. Particulars: 24 and 48 h treatment. As for the experimental part:
as §2, §3

Series [5] in a line: MTT cytotoxicity assay, HACAT cells. Format: cell-based. Particulars: human; for viability at 24 h, 100 µM: read-out: % Viability ± SD (at 100 μM) HACAT 24 h; for viability at 48 h, 100 µM: read-out: % Viability ± SD (at 100 μM) HACAT 48 h. As for the experimental part:
as §2, §3

In the next series the test system is HeLa cell. The series can be described thus: MTT anticancer activity assay, HeLa cells. It counts as cell-based. As for the experimental part: as §2, §3
Another series concerns HeLa cells. The series can be described thus: Cellular ROS assay (ROS deep red fluorescence kit). The settings on record: pretreatment 50, 100, 150 μM for 24 h; 5 mM H2O2 30 min. Format: cell-based. As for the experimental part:
ROS is the main contributor to cell death. These reactive molecules are formed by several mechanisms and can be detected by various techniques. In order to investigate the level of cellular ROS after treatment with compounds, the accumulation of intracellular ROS in cells was quantified with a cellular ROS assay kit (ab186029, Abcam, Boston, USA) fluorescence assay. After pretreatment with 2f, 2j, and 3i at 50, 100, and 150 μM for 24 h, cell stress was induced with 5 mM hydrogen peroxide for 30 min. The cells in each well were collected and resuspended with a serum-free medium containing the ROS red probe. Subsequently, cells were incubated at 37 °C for 30 min in the dark, and fluorescence was read at Ex/Em = 650/675 nm.
In this study, Hela cells were seeded overnight at 20,000 cells/90 µL/well in a black wall/clear bottom 96-well plate. Cells included those untreated (control) and those pre-treated with compounds at various concentrations (50, 100, 150 μM) for 24 h. The ROS deep red assay solution (100 μL/well) was added and incubated at 5% CO2, 37 °C incubator for 30 min. The fluorescence signal was monitored at Ex/Em = 650/675 nm (cut off = 665 nm) with bottom read mode within 30 min (cellular ROS assay kit, ab186029, abcam).

The mark [6] stands for this setting: Homo sapiens, 24 h, read-out: % Viability ± SD (at 100 μM) HeLa 24 h.
Setting [7] is: Homo sapiens, 48 h, read-out: % Viability ± SD (at 100 μM) HeLa 48 h.

Read-outs that look alike come from different tables or passages of the source.

As a reminder, the viability is a read-out of living cells in per cent, often relative to untreated cells. Usually IC50 stands for the concentration at which inhibition is half-maximal. For orientation: melting point means the temperature, or range, at which the solid turns liquid. In the case of `O=C(c1ccc([N+](=O)[O-])cc1)c1c(-c2ccc([N+](=O)[O-])cc2)oc2cc(O)ccc2c1=O` [2i, 7-hydroxy-3-(4-nitrobenzoyl)-2-(4-nitrophenyl)-4H-chromen-4-one], the melting point was in the range of 290 to 291 °C. The “DPPH517nm % SA ± SD” value in series [1] was found to be 13.75 ± 3.31%. Further, in [2], the “FRAP593nm Value ± SD (TE)” value is 0.08 ± 0.006 µM Trolox/1 µM of Synthesized Compounds. For the same compound, in series [3], the “ABTS734nm % Scavenging at 500 µM” value is listed as 8.52 ± 3.89%. Also, in [4], the viability at 24 h, 100 µM worked out at 65.1 ± 1.21% and the viability at 48 h, 100 µM is 41.2 ± 2.11%. Moreover, the “Toxicity in HEK293 cells” value in the series on HEK293 cells is “more toxic”. In series [5], the viability at 24 h, 100 µM is 59.8 ± 5.77% and the viability at 48 h, 100 µM worked out at 27.5 ± 1.24%. In the series on HeLa cell (24 h), the IC50 came out at 34.9 ± 2.41 µM. The “Anticancer activity on cervical cancer cells” value in the series on HeLa cell (HeLa, 24 h) is on record as “contained anticancer activity”. In the series with HeLa cell (Homo sapiens, HeLa, 24 h), this compound gave an IC50 of 34.9 µM. Also, in the series with HeLa cell (setting [6]), the viability at 100 µM came to 38.7 ± 5.22%. The viability at 100 µM in the series with HeLa cell (setting [7]) was determined as 12.5 ± 1.45%.
As a reminder, the EC50 is the concentration at which the effect is half-maximal. Regarding `CC(=O)c1ccc(O)c(O)c1OC(=O)c1ccccc1` [3i, 6-Acetyl-2,3-dihydroxyphenyl benzoate], the “DPPH517nm % SA ± SD” value in [1] was found to be 90.55 ± 0.36%. Further, the EC50 in [1] (read-out: DPPH517nm EC50 ± SD) is 59 ± 11.2 µM; in [3] (read-out: ABTS734nm EC50 ± SD), 13.9 ± 0.74 µM. The “FRAP593nm Value ± SD (TE)” value in [2] is 3.16 ± 0.350 µM Trolox/1 µM of Synthesized Compounds. Moreover, the “ABTS734nm % Scavenging at 500 µM” value in series [3] was found to be 78.80 ± 1.14%. The viability at 24 h, 100 µM in series [4] was 110 ± 1.2%; in series [5], 104.8 ± 0.88%. Further, the viability at 48 h, 100 µM is 107 ± 4.18% in series [4] and 84.9 ± 3.05% in series [5]. In addition, the viability at 100 µM with HeLa cell (setting [6]) stood at 99.9 ± 4.19%; with HeLa cell (setting [7]) it was 37.1 ± 1.96%. Also, the “Cellular ROS fluorescence intensity vs H2O2-treated cells” value in the series on HeLa cells was “decreased significantly”.
Regarding `O=C(c1ccccc1)c1c(-c2ccccc2)oc2cccc(O)c2c1=O` [2a, 3-Benzoyl-5-hydroxy-2-phenyl-4H-chromen-4-one], the melting point was 156 to 158 °C. The “DPPH517nm % SA ± SD” value in series [1] came out at 2.23 ± 1.99%. Moreover, the “FRAP593nm Value ± SD (TE)” value in series [2] is on record as 0.02 ± 0.004 µM Trolox/1 µM of Synthesized Compounds. Also, the “ABTS734nm % Scavenging at 500 µM” value in series [3] is listed as 10.93 ± 1.44%. Also, in series [4], the viability at 24 h, 100 µM was determined as 111 ± 6.37% and the viability at 48 h, 100 µM amounted to 103 ± 6.05%. In addition, in series [5], the viability at 24 h, 100 µM was 63.8 ± 3.36% and the viability at 48 h, 100 µM came to 88.5 ± 6.86%. Besides, the viability at 100 µM with HeLa cell (setting [6]) came to 91.9 ± 2.06%. Further, the viability at 100 µM in the series on HeLa cell (setting [7]) was 58.8 ± 2.02%.
